Experimental data published in ChEMBL document CHEMBL5338816, “Discovery of Dimethyl Shikonin Oxime 5a, a Potent, Selective Bombesin Receptor Subtype-3 Agonist for the Treatment of Type 2 Diabetes Mellitus” (J Med Chem, 2023).
Each block holds one compound with its values, some of them ahead of it. Calls of active or inactive are those of the source. The calls are words filed in the database; no cut-off is given here.

What was measured:
[1] = molecular target: T1, Bombesin receptor subtype-3 (Homo sapiens, UniProt P32247); assay: Agonist activity at human BB3 stably overexpressed in human NCI-H1299 cells assessed as increase in IP-1 accumulation incubated for 60 mins by HTRF assay; type: functional, cell-based
T1 sequence (P32247 whole entry): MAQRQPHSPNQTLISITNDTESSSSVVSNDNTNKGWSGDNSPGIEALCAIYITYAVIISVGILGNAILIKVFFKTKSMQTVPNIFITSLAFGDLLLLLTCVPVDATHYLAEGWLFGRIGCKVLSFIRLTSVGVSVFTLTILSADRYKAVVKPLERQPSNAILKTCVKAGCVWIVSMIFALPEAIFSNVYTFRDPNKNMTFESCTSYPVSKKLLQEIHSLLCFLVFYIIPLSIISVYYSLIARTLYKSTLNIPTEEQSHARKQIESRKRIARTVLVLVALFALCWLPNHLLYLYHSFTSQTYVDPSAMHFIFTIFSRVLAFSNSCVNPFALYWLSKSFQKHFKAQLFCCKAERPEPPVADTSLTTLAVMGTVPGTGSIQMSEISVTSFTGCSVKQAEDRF

[2] = molecular target: T1, Bombesin receptor subtype-3; assay: Agonist activity at human BB3 stably overexpressed in human NCI-H1299 cells assessed as increase in intracellular calcium response and measured for 3 mins by FLIPR calcium 6 assay; type: functional, cell-based
[3] = molecular target: T2, Bombesin receptor subtype-3 (Mus musculus, UniProt O54798); assay: Agonist activity at mouse BB3 stably overexpressed in human HEK cells assessed as increase in IP-1 accumulation incubated for 60 mins by HTRF assay; type: functional, cell-based
T2 sequence (O54798 whole entry): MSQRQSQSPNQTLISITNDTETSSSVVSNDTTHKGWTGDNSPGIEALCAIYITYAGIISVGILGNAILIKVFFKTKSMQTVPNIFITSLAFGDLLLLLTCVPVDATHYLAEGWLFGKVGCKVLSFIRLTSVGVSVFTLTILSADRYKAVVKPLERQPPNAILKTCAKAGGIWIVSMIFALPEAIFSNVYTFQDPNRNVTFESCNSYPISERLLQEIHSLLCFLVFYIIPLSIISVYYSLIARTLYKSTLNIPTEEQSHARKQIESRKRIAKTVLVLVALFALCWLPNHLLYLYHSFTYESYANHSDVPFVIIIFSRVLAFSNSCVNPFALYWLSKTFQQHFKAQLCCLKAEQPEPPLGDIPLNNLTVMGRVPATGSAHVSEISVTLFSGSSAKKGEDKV

[4] = molecular target: T2, Bombesin receptor subtype-3; assay: Agonist activity at mouse BB3 stably overexpressed in human HEK cells assessed as increase in intracellular calcium response and measured for 3 mins by FLIPR calcium 6 assay; type: functional, cell-based
[5] = molecular target: T2, Bombesin receptor subtype-3; assay: Agonist activity at endogenous mouse BB3 in mouse B16 cells assessed as increase in IP-1 accumulation incubated for 60 mins by HTRF assay; type: functional, cell-based
[6] = molecular target: T3, Neuromedin-B receptor (Homo sapiens, UniProt P28336); assay: Agonist activity at human BB1 in human HEK293T cells assessed as increase in intracellular calcium response and measured for 3 mins by FLIPR calcium 6 assay; type: functional, cell-based
Target sequence in this assay (P28336 whole entry): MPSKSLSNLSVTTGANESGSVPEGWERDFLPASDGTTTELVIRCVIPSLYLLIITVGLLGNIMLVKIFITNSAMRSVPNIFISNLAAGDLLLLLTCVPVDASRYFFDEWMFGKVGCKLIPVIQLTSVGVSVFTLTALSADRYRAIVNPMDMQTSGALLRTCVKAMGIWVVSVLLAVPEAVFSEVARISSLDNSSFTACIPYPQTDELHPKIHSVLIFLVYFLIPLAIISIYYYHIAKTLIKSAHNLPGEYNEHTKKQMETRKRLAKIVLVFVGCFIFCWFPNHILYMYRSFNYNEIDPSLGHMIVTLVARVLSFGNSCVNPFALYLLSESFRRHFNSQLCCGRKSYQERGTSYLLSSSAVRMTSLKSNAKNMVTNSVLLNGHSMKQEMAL

[7] = Agonist activity at human BB3 in human HEK293T cells assessed as increase in intracellular calcium response and measured for 3 mins by FLIPR calcium 6 assay; type: cell-based; conditions: HEK-293T, 0.05 h
[8] = molecular target: T3, Neuromedin-B receptor; assay: Agonist activity at human BB1 in human HEK293T cells assessed as increase in intracellular calcium response at 10 uM and measured for 3 mins by FLIPR calcium 6 assay; type: functional, cell-based
Target sequence in this assay (P28336 whole entry, looked up): as the sequence (P28336 whole entry) above

[9] = test system: HEK293T; assay: Agonist activity at human BB3 in human HEK293T cells assessed as increase in intracellular calcium response at 10 uM and measured for 3 mins by FLIPR calcium 6 assay; type: cell-based
[10] = test system: Mus musculus; assay: Antidiabetic activity in five hrs fasted wild type C57BL/6 mouse assessed as reduction in blood glucose level at 3 to 30 mg/kg,po pretreated with compound for 30 mins and followed by […] and measured upto 120 mins by OGTT; type: functional, organism-based; conditions: dose upper 30.0 mg/kg, time 150.0 min
[11] = test system: Mus musculus; assay: Antidiabetic activity in five hrs fasted BB3 knockout C57BL/6 mouse assessed as reduction in blood glucose level at 30 mg/kg,po pretreated with compound for 30 mins and followed by […] and measured upto 120 mins by OGTT; type: functional, organism-based; conditions: time 150.0 min
[12] = Dissociation constant, pKa of the compound; type: physicochemical
[13] = Drug concentration in […] mouse cerebrospinal fluid at 50 mg/kg,po and measured upto 480 mins by LC-MS/MS analysis; type: ADME, organism-based; conditions: read-out: Ct
[14] = test system: Mus musculus; assay: Antidiabetic activity in fourteen hour fasted type 2 diabetic db/db mouse assessed as reduction of blood glucose excursion at 10 mg/kg,po for 2 weeks followed by […] and measured upto 120 mins by OGTT; type: functional, organism-based
[15] = test system: Mus musculus; assay: Antidiabetic activity in fourteen hour fasted type 2 diabetic db/db mouse assessed as decrease in fasting blood glucose level at 10 mg/kg,po for 4 weeks by Glucose analyzer; type: functional, organism-based
[16] = test system: Mus musculus; assay: Antidiabetic activity in fourteen hour fasted type 2 diabetic db/db mouse assessed as decrease in glycosylated serum protein at 10 mg/kg,po for 4 weeks; type: functional, organism-based
[17] = test system: Mus musculus; assay: Antidiabetic activity in fourteen hour fasted type 2 diabetic db/db mouse assessed as decrease in HOMA-IR level at 10 mg/kg,po for 4 weeks; type: functional, organism-based
[18] = test system: Mus musculus; assay: Antidiabetic activity in fourteen hour fasted type 2 diabetic db/db mouse assessed as decrease in ALT level at 10 mg/kg,po for 4 weeks by BS-360S analyzer; type: functional, organism-based
[19] = test system: Mus musculus; assay: Antidiabetic activity in fourteen hour fasted type 2 diabetic db/db mouse assessed as decrease in gamma-GT level at 10 mg/kg,po for 4 weeks by BS-360S analyzer; type: functional, organism-based
[20] = molecular target: T1, Bombesin receptor subtype-3; assay: Agonist activity at human BB3 transiently expressed in human HEK293T cells assessed as increase in IP-1 accumulation incubated for 60 mins by HTRF assay
[21] = molecular target: T4, Bombesin receptor subtype-3 (Rattus norvegicus, UniProt Q8K418); assay: Agonist activity at rat BB3 transiently expressed in human HEK293T cells assessed as increase in IP-1 accumulation incubated for 60 mins by HTRF assay; type: functional, cell-based
T4 sequence (Q8K418 whole entry): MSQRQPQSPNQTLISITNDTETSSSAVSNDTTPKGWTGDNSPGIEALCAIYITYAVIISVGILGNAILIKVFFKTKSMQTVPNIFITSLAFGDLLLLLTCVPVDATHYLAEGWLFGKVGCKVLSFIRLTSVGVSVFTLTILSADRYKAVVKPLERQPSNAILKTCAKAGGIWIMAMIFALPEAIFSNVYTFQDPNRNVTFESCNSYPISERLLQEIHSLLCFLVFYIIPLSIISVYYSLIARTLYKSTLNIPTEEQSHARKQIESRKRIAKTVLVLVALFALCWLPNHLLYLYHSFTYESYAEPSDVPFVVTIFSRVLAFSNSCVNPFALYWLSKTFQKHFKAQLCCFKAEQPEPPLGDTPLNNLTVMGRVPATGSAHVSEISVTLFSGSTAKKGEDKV

[22] = test system: Mus musculus; assay: Antidiabetic activity in fourteen hour fasted type 2 diabetic db/db mouse assessed as increase in PPRE expression in white adipose tissue at 10 mg/kg, po for 4 weeks by Western blot analysis; type: functional, organism-based

Compound: COc1cc(C(CC=C(C)C)OCCC(C)C)c(OC)c2c1/C(=N/OC(=O)c1ccccc1)C=C/C2=N\OC(=O)c1ccccc1 (centres undefined)
EC50 [1]: > 10000 nM

Compound: C=CC(C)(C)C(OC(C)=O)c1cc(OC)c2c(c1OC)/C(=N/O)C=C/C2=N\O (centres undefined)
EC50 [1]: > 1000 nM

Compound: CCCC[C@H](NC(=O)[C@H](Cc1ccccc1)NC(=O)[C@H](Cc1c[nH]cn1)NC(=O)CNC(=O)[C@@H](NC(=O)[C@H](C)NC(=O)[C@H](Cc1c[nH]c2ccccc12)NC(=O)[C@H](CCC(N)=O)NC(=O)[C@H](N)Cc1ccccc1)C(C)C)C(N)=O
EC50 [6]: 0.155 nM | EC50 [7]: 0.405 nM

Compound: COc1cc(C(O)CC=C(C)C)c(OC)c2c1/C(=N/O)C=C/C2=N\O (centres undefined)
EC50 [1]: 3400 nM | EC50 [2]: 2380 nM | EC50 [3]: 624 nM | EC50 [4]: 780 nM

Compound: COc1cc(C(CC=C(C)C)OCCC(C)C)c(OC)c2c1/C(=N/O)C=C/C2=N\O (centres undefined)
EC50 [1]: 520 nM

Compound: C=CC(C)(C)C(O)c1cc(OC)c2c(c1OC)/C(=N/O)C=C/C2=N\O (centres undefined)
EC50 [1]: > 10000 nM

Compound: COc1cc(C(CC=C(C)C)OC(=O)CC(C)C)c(OC)c2c1/C(=N/O)C=C/C2=N\O (centres undefined)
EC50 [1]: 822 nM

Compound: C=CC(C)(C)C(OCCCO)c1cc(OC)c2c(c1OC)/C(=N/O)C=C/C2=N\O (centres undefined)
EC50 [1]: > 10000 nM

Compound: C=CC(C)(C)C(OCCCCCO)c1cc(OC)c2c(c1OC)/C(=N/O)C=C/C2=N\O (centres undefined)
EC50 [1]: 776 nM

Compound: C=CC(C)(C)C(OC(=O)c1ccc(C=O)cc1)c1cc(OC)c2c(c1OC)/C(=N/O)C=C/C2=N\O (centres undefined)
EC50 [1]: 311 nM

Compound: C=CC(C)(C)C(OCCCCO)c1cc(OC)c2c(c1OC)/C(=N/O)C=C/C2=N\O (centres undefined)
EC50 [1]: 226 nM

Compound: C=CC(C)(C)C(OC(=O)c1ccncc1)c1cc(OC)c2c(c1OC)/C(=N/O)C=C/C2=N\O (centres undefined)
EC50 [1]: 277 nM

More lines, in order of falling EC50 [1], values ahead:

EC50 [1]: 135 nM
Compound: C=CC(C)(C)C(OC(=O)C1CCCO1)c1cc(OC)c2c(c1OC)/C(=N/O)C=C/C2=N\O (centres undefined)

EC50 [1]: 101 nM
Compound: C=CC(C)(C)C(OC(=O)c1cccnc1Br)c1cc(OC)c2c(c1OC)/C(=N/O)C=C/C2=N\O (centres undefined)

EC50 [1]: 81.7 nM
Compound: C=CC(C)(C)C(OC(=O)c1ccc(C)cc1)c1cc(OC)c2c(c1OC)/C(=N/O)C=C/C2=N\O (centres undefined)

EC50 [1]: 60 nM
Compound: C=CC(C)(C)C(OC(=O)c1cncc(F)c1)c1cc(OC)c2c(c1OC)/C(=N/O)C=C/C2=N\O (centres undefined)

EC50 [1]: 52.5 nM
Compound: C=CC(C)(C)C(OC(=O)CC(C)C)c1cc(OC)c2c(c1OC)/C(=N/O)C=C/C2=N\O (centres undefined)

EC50 [1]: 15.7 nM
Compound: C=CC(C)(C)C(OC(=O)c1cccnc1)c1cc(OC)c2c(c1OC)/C(=N/O)C=C/C2=N\O (centres undefined)

EC50 [1]: 14.7 nM
Compound: C=CC(C)(C)C(OC(=O)c1ccccn1)c1cc(OC)c2c(c1OC)/C(=N/O)C=C/C2=N\O (centres undefined)

EC50 [1]: 4.79 nM
Compound: C=CC(C)(C)C(OC(=O)c1ccccc1)c1cc(OC)c2c(c1OC)/C(=N/O)C=C/C2=N\O (centres undefined)

EC50 [1]: 3.78 nM | EC50 [2]: 10.9 nM | EC50 [3]: 54.7 nM | EC50 [4]: 67 nM | Activity [8]: inactive | EC50 [5]: 0.44 nM | pKa [12]: > 10.2 | concentration at 8 h [13]: < 0.05 ng/mL | EC50 [20]: 149 nM | EC50 [21]: 6.11 nM
Compound: C=CC(C)(C)C(OC(=O)c1ccco1)c1cc(OC)c2c(c1OC)/C(=N/O)C=C/C2=N\O (centres undefined)
Activity [9]: inactive | Activity [10]: Dose-Dependent Effect | Activity [11]: inactive | Activity [14]: Active | Activity [15]: Active | Activity [16]: Active | Activity [17]: Active | Activity [18]: Active | Activity [19]: Active | Activity [22]: Active

EC50 [1]: 0.211 nM | EC50 [2]: 0.293 nM | EC50 [3]: 0.421 nM | EC50 [4]: 2.99 nM | EC50 [5]: 13.5 nM
Compound: O[C@@](Cc1nc(CC2(C(F)(F)F)CC2)c[nH]1)(c1ccc(-n2cccn2)cc1)C(F)(F)F
